These results are taken from patent US5723463A, “Pyrido [3,2-E]pyrazinones with anti-asthmatic action and processes for their manufacture” (ASTA Medica Aktiengesellschaft, priority 1995, dated 1998).

One assay addresses T1, PDE V (Homo sapiens, UniProt O76074).
T1 construct: PDE V (cGMP-specific) is isolated from human blood platelets; from tissue; host or cells: human blood platelets
The assay is described as follows: PDE V inhibition (in vitro), cGMP-specific PDE isolated from human blood platelets. The settings on record: substrate 0.5 μM cGMP. In kind it is biochemical. As for the experimental part: Phosphodiesterase (PDE) activity is determined with a few modifications (Bauer, A. C.; Schwabe, U., An improved assay of cyclic 3',5'-nucleotide phosphodiesterase with QAE Sephadex A-25. Naunyn-Schmiedeberg's Arch. Pharmacol. 311 193-198 (1980)) after the method described by Thompson et al. (Thompson, W. J.; Appleman, M. M., Assay of cyclic nucleotide phosphodiesterase and resolution of multiple molecular forms of the enzyme. Adv. Cycl. Nucl. Res. 10 69-92 (1979)) The reaction mixture contains 40 mM Tris-HCl (pH 7.4), 5 mM MgCl2, 0.5 μM cAMP or cGMP, [^3 H]cAMP or [^3 H]cGMP (approx. 20,000 cpm/test) and the other components needed to record the individual isoenzymes (see below). The final volume is 200 μl. Test substances are prepared as stock solutions in DMSO. The DMSO concentration in the reaction mixture is the same or less than 1% v/v. The PDE activity is not influenced at this DMSO concentration. After pre-incubation for 5 minutes at 37° C. the reaction is started by adding the substrate (cAMP or cGMP). The samples are incubated for a further 15 minutes at 37° C. The reaction is stopped by adding 50 μl 0.2N HCl. The samples remain in the ice for a further 10 minutes. […] The radioactivity of the individual fractions is recorded using scintigraphy. […]

Assay [1] deals with Histamine precontracted trachea. The assay is described as follows: Influence on the trachea precontracted using histamine. The settings on record: Cavia porcellus, guinea pig trachea. As for the experimental part: Guinea pigs are exsanguinated under narcosis. The trachea is then prepared free from adjacent tissue and cut into five equal parts (at least 3 trachea-rings wide). The trachea parts are suspended in a bath filled with a nutrient solution (Krebs-Henseleit). The strength of contraction of the trachea can be measured using force transducers. After suspension, a 15-minute acclimatisation period is allowed. The trachea is then totally relaxed using isoprenaline (1×10^-7 mol/l). The bath vessel is then rinsed. A contraction maximum is triggered using metacholine (10×10^-5 mol/l). The bath vessel is then rinsed again. Histamine ([…]) is then added. The contraction maximum is reached after approx. 10 minutes. The test substance is then added to the bath in increasing concentration and the contraction-triggering effect determined in percent to an untreated control. The mean contraction-triggering concentration is calculated using regression apparatuses. To check the function of the organs, isoprenaline (1×10^-5 mol/l) is then added to the bath to see whether the organs are still able to relax.

The subject of another assay is PDE IV. In words: PDE IV inhibition (in vitro), cAMP-specific PDE of cytosol of human polymorphonuclear leucocytes. In kind it is biochemical. The settings on record: substrate 0.5 μM cAMP, motapizon 1 μM. As for the experimental part: Phosphodiesterase (PDE) activity is determined with a few modifications (Bauer, A. C.; Schwabe, U., An improved assay of cyclic 3',5'-nucleotide phosphodiesterase with QAE Sephadex A-25. Naunyn-Schmiedeberg's Arch. Pharmacol. 311 193-198 (1980)) after the method described by Thompson et al. (Thompson, W. J.; Appleman, M. M., Assay of cyclic nucleotide phosphodiesterase and resolution of multiple molecular forms of the enzyme. Adv. Cycl. Nucl. Res. 10 69-92 (1979)) The reaction mixture contains 40 mM Tris-HCl (pH 7.4), 5 mM MgCl2, 0.5 μM cAMP or cGMP, [^3 H]cAMP or [^3 H]cGMP (approx. 20,000 cpm/test) and the other components needed to record the individual isoenzymes (see below). The final volume is 200 μl. Test substances are prepared as stock solutions in DMSO. The DMSO concentration in the reaction mixture is the same or less than 1% v/v. The PDE activity is not influenced at this DMSO concentration. […] The radioactivity of the individual fractions is recorded using scintigraphy.
The PDE IV (cAMP-specific) activity is determined after the method described by Schudt et al. (Schudt C.; Winter S.; Forderkurz S.; Hatzelmann A.; Ullrich V., Influence of selective phosphodiesterase inhibitors on human neutrophil functions and levels of cAMP and Ca. Naunyn-Schmiedeberg's Arch. Pharmacol. 344, 682-690 (1991)) describe a method in the cytosol of human polymorpho-nuclear leucocytes. […]

Assay [2] deals with Ovalbumin-induced eosinophilia. The assay is described as follows: Asthmatic late phase reaction: ovalbumin-induced eosinophilia in guinea pigs (BAL). In kind it is in vivo, guinea pig. The settings on record: 1 mg/kg i.p., 2 hours before allergen challenge, BAL 24 hours after. As for the experimental part: Male guinea pigs (250-300 g, Pirbright white, Charles River Wiga) are actively sensitised by s.c. injection of ovalbumin (10 μg+100 mg aluminium hydroxide) and boosted 2 weeks later. One week after the boosting (10 μg+100 mg aluminium hydroxide) the animals are exposed of an aerosol of nebulised 0.5 % ovalbumin solution for 20 seconds. 24 hours later, the bronchoalveolar lavage (BAL) is carried out using 2×5 ml sodium chloride solution on animals sacrificed with an overdose of pentobarbital. The lavage liquid is pooled and centrifuged for 10 minutes. The cell pellet is suspended in 1 ml physiological sodium chloride solution and the eosinophils are counted microscopically in a counting chamber using a Becton-Dickinson eosinophil kit. The eosinophils are counted for each guinea pig. The mean value is calculated for each group. The inhibition of the eosinophils for the group treated with substance is obtained using the formula:
(A-C)-(B-C)/(A-C)×100=% inhibition
A=Eosinophils in the untreated control group challenged with ovalbumin
B=Eosinophils in the group treated with the substance and challenged with ovalbumin
C=Eosinophils in the control group not challenged with ovalbumin
The substance was applied 2 hours before allergen challenge p,o, (in 1% methocel) or i.p. (in 0.5% methocel). The control groups receive 1% methocel p.o. or 0.5% methocel i.p. 2 hours before allergen challenge.

For the compound `CCCn1c(=O)c2c(C)nc(CC)n2c2nc(OC)ccc21` [embodiment 1, 1-ethyl-8-methoxy-3-methyl-5-propyloimidazo[1,5-a]pyrido[3,2-e]-pyrazinone], the 50% inhibitory concentration (IC50) against PDE V is 0.095 µM; in assay [1], 0.7 µM; with PDE IV, 0.1 µM. The “Ovalbumin-induced eosinophilia: % inhibition of eosinophils” value in assay [2] worked out at 74%.

What is called IC50 is the concentration at which inhibition is half-maximal. Read a low IC50 as inhibition by little substance.
